# According to PubChem BioAssay (NCI):
#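 These data come from cells grown in 96-well plates and exposed to compound for 48 hours at five concentrations. GI50 = concentration required for 50% inhibition of growth. TGI: concentration producing complete growth inhibition.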
# What was measured:
# Experiment in all cases: inhibition of tumour cell growth, NCI panel, 48 h
# [1] = test system: 786-0 renal
# [2] = test system: A498 renal
# [3] = test system: A549 NSCLC
# [4] = test system: ACHN renal
# [5] = test system: BT-549 breast
# [6] = test system: CAKI-1 renal
# [7] = test system: CCRF-CEM leukemia
# [8] = test system: COLO 205 colon
# [9] = test system: DU-145 prostate
# [10] = test system: EKVX NSCLC
# [11] = test system: HCC-2998 colon
# [12] = test system: HCT-116 colon
# [13] = test system: HCT-15 colon
# [14] = test system: HL-60(TB) leukemia
# [15] = test system: HOP-62 NSCLC
# [16] = test system: HOP-92 NSCLC
# [17] = test system: HS 578T breast
# [18] = test system: HT29 colon
# [19] = test system: IGROV1 ovarian
# [20] = test system: K-562 leukemia
# [21] = test system: KM12 colon
# [22] = test system: LOX IMVI melanoma
# [23] = test system: M14 melanoma
# [24] = test system: MALME-3M melanoma
# [25] = test system: MCF7 breast
# [26] = test system: MDA-MB-231 breast
# [27] = test system: MDA-MB-435
# [28] = test system: MOLT-4 leukemia
# [29] = test system: NCI-H226 lung
# [30] = test system: NCI-H23 lung
# [31] = test system: NCI-H460 lung
# [32] = test system: NCI-H522 lung
# [33] = test system: NCI/ADR-RES ovarian
# [34] = test system: OVCAR-3 ovarian
# [35] = test system: OVCAR-4 ovarian
# [36] = test system: OVCAR-5 ovarian
# [37] = test system: OVCAR-8 ovarian
# [38] = test system: PC-3 prostate
# [39] = test system: RPMI-8226 leukemia
# [40] = test system: RXF 393 renal
# [41] = test system: SF-268 CNS
# [42] = test system: SF-295 CNS
# [43] = test system: SF-539 CNS
# [44] = test system: SK-MEL-2 melanoma
# [45] = test system: SK-MEL-28 melanoma
# [46] = test system: SK-MEL-5 melanoma
# [47] = test system: SK-OV-3 ovarian
# [48] = test system: SN12C renal
# [49] = test system: SNB-19 CNS
# [50] = test system: SNB-75 CNS
# [51] = test system: SR leukemia
# [52] = test system: SW-620 colon
# [53] = test system: T-47D breast
# [54] = test system: TK-10 renal
# [55] = test system: U251 CNS
# [56] = test system: UACC-257 melanoma
# [57] = test system: UACC-62 melanoma
# [58] = test system: UO-31 renal
smiles,measurement,setting,value
C=C(C(=O)c1ccccc1)C(NC(C)(C)C)c1ccccc1 (configuration not stated),GI50,[1],2.06 µM
same,TGI,[1],4.08 µM
same,GI50,[2],1.7 µM
same,TGI,[2],3.25 µM
same,GI50,[3],2.74 µM
same,TGI,[3],7.79 µM
same,GI50,[4],1.59 µM
same,TGI,[4],4.51 µM
same,GI50,[5],2.13 µM
same,TGI,[5],4.6 µM
same,GI50,[6],1.91 µM
same,TGI,[6],7.42 µM
same,GI50,[7],0.629 µM
same,TGI,[7],43.7 µM
same,GI50,[8],1.29 µM
same,TGI,[8],2.81 µM
same,GI50,[9],3.11 µM
same,TGI,[9],13.2 µM
same,GI50,[10],3.53 µM
same,TGI,[10],13.7 µM
same,GI50,[11],1.81 µM
same,TGI,[11],3.38 µM
same,GI50,[12],1.33 µM
same,TGI,[12],2.92 µM
same,GI50,[13],1.88 µM
same,TGI,[13],10 µM
same,GI50,[14],2.03 µM
same,TGI,[14],7.82 µM
same,GI50,[15],3.38 µM
same,TGI,[15],10.4 µM
same,GI50,[16],2.38 µM
same,TGI,[16],6.83 µM
same,GI50,[17],5.56 µM
same,TGI,[17],75.9 µM
same,GI50,[18],1 µM
same,TGI,[18],3.13 µM
same,GI50,[19],2.3 µM
same,TGI,[19],6.9 µM
same,GI50,[20],1.91 µM
same,TGI,[20],11.5 µM
same,GI50,[21],2.22 µM
same,TGI,[21],6.36 µM
same,GI50,[22],1.46 µM
same,TGI,[22],2.97 µM
same,GI50,[23],1.87 µM
same,TGI,[23],4.65 µM
same,GI50,[24],1.91 µM
same,TGI,[24],4.33 µM
same,GI50,[25],1.06 µM
same,TGI,[25],8.21 µM
same,GI50,[26],2.06 µM
same,TGI,[26],4.84 µM
same,GI50,[27],2.11 µM
same,TGI,[27],11 µM
same,GI50,[28],1.76 µM
same,TGI,[28],21.9 µM
same,GI50,[29],1.63 µM
same,TGI,[29],4.56 µM
same,GI50,[30],1.77 µM
same,TGI,[30],4.93 µM
same,GI50,[31],2.15 µM
same,TGI,[31],5.23 µM
same,GI50,[32],0.308 µM
same,TGI,[32],1.53 µM
same,GI50,[33],2.63 µM
same,TGI,[33],12.4 µM
same,GI50,[34],1.3 µM
same,TGI,[34],3.24 µM
same,GI50,[35],4.72 µM
same,TGI,[35],17.1 µM
same,GI50,[36],2.37 µM
same,TGI,[36],4.65 µM
same,GI50,[37],3.02 µM
same,TGI,[37],10.8 µM
same,GI50,[38],3.26 µM
same,TGI,[38],13 µM
same,GI50,[39],1.84 µM
same,TGI,[39],6.44 µM
same,GI50,[40],1.21 µM
same,TGI,[40],2.69 µM
same,GI50,[41],3.61 µM
same,TGI,[41],18.6 µM
same,GI50,[42],2.9 µM
same,TGI,[42],10.8 µM
same,GI50,[43],3.21 µM
same,TGI,[43],8.36 µM
same,GI50,[44],1.88 µM
same,TGI,[44],4.78 µM
same,GI50,[45],1.84 µM
same,TGI,[45],3.72 µM
same,GI50,[46],1.45 µM
same,TGI,[46],2.82 µM
same,GI50,[47],3.76 µM
same,TGI,[47],20.1 µM
same,GI50,[48],2.12 µM
same,TGI,[48],5.38 µM
same,GI50,[49],4.2 µM
same,TGI,[49],16 µM
same,GI50,[50],4 µM
same,TGI,[50],16.6 µM
same,GI50,[51],1.56 µM
same,TGI,[51],8.41 µM
same,GI50,[52],1.14 µM
same,TGI,[52],3.44 µM
same,GI50,[53],2.44 µM
same,TGI,[53],6.78 µM
same,GI50,[54],1.02 µM
same,TGI,[54],2.25 µM
same,GI50,[55],2.2 µM
same,TGI,[55],6.21 µM
same,GI50,[56],1.69 µM
same,TGI,[56],4.81 µM
same,GI50,[57],1.54 µM
same,TGI,[57],4.02 µM
same,GI50,[58],1.38 µM
same,TGI,[58],2.85 µM
Cc1cc(O)ccc1C1(c2ccc(O)cc2C)OC(=O)c2ccccc21,GI50,[1],16.8 µM
same,TGI,[1],34 µM
same,GI50,[2],17.7 µM
same,TGI,[2],33.3 µM
same,GI50,[3],20.8 µM
same,TGI,[3],37 µM
same,GI50,[4],16 µM
same,TGI,[4],31.8 µM
same,GI50,[5],17.1 µM
same,TGI,[5],36.4 µM
same,GI50,[6],16 µM
same,TGI,[6],30.1 µM
same,GI50,[7],24.4 µM
same,TGI,[7],67.7 µM
same,GI50,[8],16.8 µM
same,TGI,[8],32.3 µM
same,GI50,[9],18 µM
same,TGI,[9],31.9 µM
same,GI50,[10],14.9 µM
same,TGI,[10],31 µM
same,GI50,[11],18.5 µM
same,TGI,[11],33.9 µM
same,GI50,[12],18.6 µM
same,TGI,[12],33.7 µM
same,GI50,[13],16.3 µM
same,TGI,[13],30.7 µM
same,GI50,[14],22.8 µM
same,TGI,[14],64.2 µM
same,GI50,[15],16.7 µM
same,TGI,[15],32.5 µM
same,GI50,[16],15.4 µM
same,TGI,[16],29.7 µM
same,GI50,[17],18.9 µM
same,TGI,[17],46.3 µM
same,GI50,[18],19.9 µM
same,TGI,[18],35.5 µM
same,GI50,[19],21 µM
same,TGI,[19],47.5 µM
same,GI50,[20],28 µM
same,TGI,[20],> 100 µM
same,GI50,[21],18.8 µM
same,TGI,[21],37.7 µM
same,GI50,[22],18.5 µM
same,TGI,[22],37.7 µM
same,GI50,[23],18.3 µM
same,TGI,[23],37.1 µM
same,GI50,[24],17.9 µM
same,TGI,[24],37.9 µM
same,GI50,[25],18.1 µM
same,TGI,[25],36.5 µM
same,GI50,[26],21.4 µM
same,TGI,[26],48.9 µM
same,GI50,[27],15.6 µM
same,TGI,[27],29.7 µM
same,GI50,[28],23.8 µM
same,TGI,[28],58.9 µM
same,GI50,[29],19.1 µM
same,TGI,[29],41 µM
same,GI50,[30],16.6 µM
same,TGI,[30],33.4 µM
same,GI50,[31],19.7 µM
same,TGI,[31],40.4 µM
same,GI50,[32],18.5 µM
same,TGI,[32],35 µM
same,GI50,[33],21.1 µM
same,TGI,[33],49.6 µM
same,GI50,[34],16.4 µM
same,TGI,[34],30.1 µM
same,GI50,[35],16.4 µM
same,TGI,[35],30.8 µM
same,GI50,[36],16 µM
same,TGI,[36],32.9 µM
same,GI50,[37],23.3 µM
same,TGI,[37],46.5 µM
same,GI50,[38],18 µM
same,TGI,[38],35.6 µM
same,GI50,[39],28.1 µM
same,TGI,[39],78.7 µM
same,GI50,[40],18.5 µM
same,TGI,[40],33.9 µM
same,GI50,[41],19 µM
same,TGI,[41],43.9 µM
same,GI50,[42],16.2 µM
same,TGI,[42],31.7 µM
same,GI50,[43],17.4 µM
same,TGI,[43],33.5 µM
same,GI50,[44],18.4 µM
same,TGI,[44],33.8 µM
same,GI50,[45],17.3 µM
same,TGI,[45],35.4 µM
same,GI50,[46],18 µM
same,TGI,[46],32.1 µM
same,GI50,[47],17.7 µM
same,TGI,[47],32.8 µM
same,GI50,[48],19.5 µM
same,TGI,[48],39.9 µM
same,GI50,[49],18.7 µM
same,TGI,[49],35.2 µM
same,GI50,[50],15.1 µM
same,TGI,[50],29.5 µM
same,GI50,[51],30.3 µM
same,TGI,[51],> 100 µM
same,GI50,[52],16.9 µM
same,TGI,[52],35.8 µM
same,GI50,[53],20.2 µM
same,TGI,[53],41.3 µM
same,GI50,[54],17 µM
same,TGI,[54],30.8 µM
same,GI50,[55],19.9 µM
same,TGI,[55],36.6 µM
same,GI50,[56],23.8 µM
same,TGI,[56],46 µM
same,GI50,[57],18 µM
same,TGI,[57],35.9 µM
same,GI50,[58],18.1 µM
same,TGI,[58],36.7 µM
